According to ChEMBL document CHEMBL1201862, “PubChem BioAssay data set” (2004):
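Grown in 96-well plates, cells were treated for 48 hours with each compound at five concentrations. Insufficient inhibition: endpoint recorded as highest concentration tested. At the GI50, growth is halved.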 Calls of active or inactive are those of the source. Rule as the data show it: active = GI50 up to about 1.1 µM and inactive = higher.

Tests used:
Test in all cases: growth of human tumour cells (NCI), 48 h
ACHN = test system: ACHN
PC-3 = test system: PC-3
IGROV-1 = test system: IGROV-1
MDA-N = test system: MDA-N
CCRF-CEM = test system: CCRF-CEM
SNB-19 = test system: SNB-19
COLO 205 = test system: COLO 205
CAKI-1 = test system: CAKI-1
MDA-MB-231 = test system: MDA-MB-231
HCT-15 = test system: HCT-15
SF-268 = test system: SF-268
SN12C = test system: SN12C
U-251 = test system: U-251
TK-10 = test system: TK-10
K562 = test system: K562
OVCAR-3 = test system: OVCAR-3
EKVX = test system: EKVX
NCI/ADR-RES = test system: NCI/ADR-RES
OVCAR-8 = test system: OVCAR-8
A498 = test system: A498
RXF 393 = test system: RXF 393
HOP-62 = test system: HOP-62
RPMI-8226 = test system: RPMI-8226
SK-OV-3 = test system: SK-OV-3
Hs-578T = test system: Hs-578T
SNB-75 = test system: SNB-75
SK-MEL-28 = test system: SK-MEL-28
BT-549 = test system: BT-549
LOX IMVI = test system: LOX IMVI
SF-295 = test system: SF-295
MCF7 = test system: MCF7
OVCAR-5 = test system: OVCAR-5
HCC 2998 = test system: HCC 2998
MDA-MB-435 = test system: MDA-MB-435
SK-MEL-2 = test system: SK-MEL-2
UACC-257 = test system: UACC-257
T47D = test system: T47D
A549 = test system: A549
M14 = test system: M14
786-0 = test system: 786-0
UO-31 = test system: UO-31
HCT-116 = test system: HCT-116
SK-MEL-5 = test system: SK-MEL-5
NCI-H23 = test system: NCI-H23
UACC-62 = test system: UACC-62
NCI-H226 = test system: NCI-H226
KM12 = test system: KM12
SW-620 = test system: SW-620
DU-145 = test system: DU-145
HL-60 = test system: HL-60
HT-29 = test system: HT-29
MOLT-4 = test system: MOLT-4
Malme-3M = test system: Malme-3M
SR = test system: SR
OVCAR-4 = test system: OVCAR-4
NCI-H522 = test system: NCI-H522
NCI-H460 = test system: NCI-H460
SF-539 = test system: SF-539
HOP-92 = test system: HOP-92

Compound: O=C(CN1C(=O)c2ccccc2C1=O)NC1(C(=O)O)CCCC1
- GI50 (ACHN): > 100 µM (inactive)
- GI50 (PC-3): > 100 µM (inactive)
- GI50 (IGROV-1): > 100 µM (inactive)
- GI50 (MDA-N): > 100 µM (inactive)
- GI50 (CCRF-CEM): > 100 µM (inactive)
- GI50 (SNB-19): > 100 µM (inactive)
- GI50 (COLO 205): > 100 µM (inactive)
- GI50 (CAKI-1): > 100 µM (inactive)
- GI50 (MDA-MB-231): > 100 µM (inactive)
- GI50 (HCT-15): > 100 µM
- GI50 (SF-268): > 100 µM (inactive)
- GI50 (SN12C): > 100 µM (inactive)
- GI50 (U-251): > 100 µM (inactive)
- GI50 (TK-10): > 100 µM (inactive)
- GI50 (K562): > 100 µM (inactive)
- GI50 (OVCAR-3): > 100 µM (inactive)
- GI50 (EKVX): > 100 µM (inactive)
- GI50 (NCI/ADR-RES): > 100 µM (inactive)
- GI50 (OVCAR-8): > 100 µM (inactive)
- GI50 (A498): > 100 µM (inactive)
- GI50 (RXF 393): > 100 µM (inactive)
- GI50 (HOP-62): > 100 µM (inactive)
- GI50 (RPMI-8226): > 100 µM (inactive)
- GI50 (SK-OV-3): > 100 µM (inactive)
- GI50 (Hs-578T): > 100 µM (inactive)
- GI50 (SNB-75): > 100 µM (inactive)
- GI50 (SK-MEL-28): > 100 µM (inactive)
- GI50 (BT-549): > 100 µM (inactive)
- GI50 (LOX IMVI): > 100 µM (inactive)
- GI50 (SF-295): > 100 µM (inactive)
- GI50 (MCF7): > 100 µM (inactive)
- GI50 (OVCAR-5): > 100 µM (inactive)
- GI50 (HCC 2998): > 100 µM (inactive)
- GI50 (MDA-MB-435): > 100 µM (inactive)
- GI50 (SK-MEL-2): > 100 µM (inactive)
- GI50 (UACC-257): > 100 µM (inactive)
- GI50 (T47D): > 100 µM (inactive)
- GI50 (A549): > 100 µM (inactive)
- GI50 (M14): > 100 µM (inactive)
- GI50 (786-0): > 100 µM (inactive)
- GI50 (UO-31): > 100 µM (inactive)
- GI50 (HCT-116): > 100 µM (inactive)
- GI50 (SK-MEL-5): > 100 µM (inactive)
- GI50 (NCI-H23): > 100 µM (inactive)
- GI50 (UACC-62): > 100 µM (inactive)
- GI50 (NCI-H226): > 100 µM (inactive)
- GI50 (KM12): > 100 µM (inactive)
- GI50 (SW-620): > 100 µM (inactive)
- GI50 (DU-145): > 100 µM (inactive)
- GI50 (HL-60): > 100 µM (inactive)
- GI50 (HT-29): > 100 µM (inactive)
- GI50 (MOLT-4): > 100 µM (inactive)
- GI50 (Malme-3M): > 100 µM (inactive)
- GI50 (SR): > 100 µM (inactive)
- GI50 (OVCAR-4): > 100 µM (inactive)
- GI50 (NCI-H522): > 100 µM (inactive)

Compound: COc1cccc(/N=N/N2CCCC2)c1
- GI50 (ACHN): > 100 µM (inactive)
- GI50 (PC-3): 27.2 µM (inactive)
- GI50 (IGROV-1): > 100 µM (inactive)
- GI50 (MDA-N): 41.4 µM (inactive)
- GI50 (CCRF-CEM): > 100 µM (inactive)
- GI50 (SNB-19): > 100 µM (inactive)
- GI50 (COLO 205): > 100 µM (inactive)
- GI50 (NCI-H460): > 100 µM (inactive)
- GI50 (CAKI-1): > 100 µM (inactive)
- GI50 (MDA-MB-231): > 100 µM (inactive)
- GI50 (HCT-15): > 100 µM
- GI50 (SF-539): > 100 µM (inactive)
- GI50 (SF-268): > 100 µM (inactive)
- GI50 (SN12C): > 100 µM (inactive)
- GI50 (U-251): > 100 µM (inactive)
- GI50 (TK-10): > 100 µM (inactive)
- GI50 (K562): > 100 µM (inactive)
- GI50 (OVCAR-3): > 100 µM (inactive)
- GI50 (EKVX): > 100 µM (inactive)
- GI50 (NCI/ADR-RES): > 100 µM (inactive)
- GI50 (OVCAR-8): > 100 µM (inactive)
- GI50 (A498): > 100 µM (inactive)
- GI50 (RXF 393): > 100 µM (inactive)
- GI50 (HOP-62): > 100 µM (inactive)
- GI50 (RPMI-8226): 53.7 µM (inactive)
- GI50 (SK-OV-3): > 100 µM (inactive)
- GI50 (Hs-578T): > 100 µM (inactive)
- GI50 (SNB-75): > 100 µM (inactive)
- GI50 (BT-549): > 100 µM (inactive)
- GI50 (LOX IMVI): 40.2 µM (inactive)
- GI50 (SF-295): 26.5 µM (inactive)
- GI50 (MCF7): > 100 µM (inactive)
- GI50 (OVCAR-5): > 100 µM (inactive)
- GI50 (MDA-MB-435): 59.2 µM (inactive)
- GI50 (SK-MEL-2): > 100 µM (inactive)
- GI50 (UACC-257): > 100 µM (inactive)
- GI50 (T47D): > 100 µM (inactive)
- GI50 (M14): > 100 µM (inactive)
- GI50 (HOP-92): > 100 µM (inactive)
- GI50 (786-0): > 100 µM (inactive)
- GI50 (UO-31): > 100 µM (inactive)
- GI50 (HCT-116): > 100 µM (inactive)
- GI50 (SK-MEL-5): > 100 µM (inactive)
- GI50 (NCI-H23): > 100 µM (inactive)
- GI50 (UACC-62): 39.5 µM (inactive)
- GI50 (NCI-H226): > 100 µM (inactive)
- GI50 (KM12): 9.46 µM (inactive)
- GI50 (SW-620): > 100 µM (inactive)
- GI50 (DU-145): > 100 µM (inactive)
- GI50 (HL-60): 34.6 µM (inactive)
- GI50 (MOLT-4): > 100 µM (inactive)
- GI50 (SR): 40.2 µM (inactive)
- GI50 (OVCAR-4): > 100 µM (inactive)
- GI50 (NCI-H522): > 100 µM (inactive)
